Drawing on patent US20260022142A1, “MACROCYCLIC IMMUNOMODULATORS” (Bristol-Myers Squibb Company, priority 2022, published 2026), this text covers IC50 for 12 molecules.

Numbered stars: 1 amine (or outer) side, 2 acyl side, 3 side chain; on linkers, the order of the positions; unused ones are H or OH. Bridge positions count the residues as written; N and C are the ends. Square brackets hold non-standard residues; d marks the D form. Peptide text beside a SMILES is read from it. * marks the point of attachment. ξ: configuration not given here. Phe(3-CF3) = N[C@@H](Cc1cccc(C(F)(F)F)c1)C(=O)O; Ala(morpholin-4-yl) = N[C@@H](CN1CCOCC1)C(=O)O; Phe(4-COOH) = N[C@@H](Cc1ccc(C(=O)O)cc1)C(=O)O; X7 = N=C(NCCC[C@H](N[*:1])C(=O)[*:2])C1CC1; Bip = N[C@@H](Cc1ccc(-c2ccccc2)cc1)C(=O)O; NH(CH2)14COOH = O=C(O)CCCCCCCCCCCCCCN*; Phe(3-Me) = Cc1cccc(C[C@H](N)C(=O)O)c1; NH(CH2)12COOH = O=C(O)CCCCCCCCCCCCN*; Val(3-OH) = CC(C)(O)[C@H](N)C(=O)O; Pyrazinecarbonyl = O=C(c1cnccn1)*; hArg = N=C(N)NCCCC[C@H](N)C(=O)O; 4Pal = N[C@@H](Cc1ccncc1)C(=O)O; Cha = N[C@@H](CC1CCCCC1)C(=O)O; Cit = NC(=O)NCCC[C@H](N)C(=O)O; Thr(3ξ) = CC(O)[C@H](N)C(=O)O; PEG4 = NCCOCCOCCOCCOCCC(=O)O; 12Ado = NCCCCCCCCCCCC(=O)O; hSer = N[C@@H](CCO)C(=O)O; Carboxymethyl = O=C(O)C*; Orn = NCCC[C@H](N)C(=O)O; Pra = C#CC[C@H](N)C(=O)O; Aun = NCCCCCCCCCCC(=O)O; Dab = NCC[C@H](N)C(=O)O; Dap = NC[C@H](N)C(=O)O; AEEA = NCCOCCOCC(=O)O; Propargyl = C#CC*

The target in this experiment is T1, PD-1/PD-L1 interaction (PE-labeled human PD-L1-Ig binding to Jurkat cell line over-expressing human PD-1) (Homo sapiens, UniProt Q15116).
T1 construct: expressed in transfected cells; host or cells: Jurkat
T1 sequence (Q15116 25-288): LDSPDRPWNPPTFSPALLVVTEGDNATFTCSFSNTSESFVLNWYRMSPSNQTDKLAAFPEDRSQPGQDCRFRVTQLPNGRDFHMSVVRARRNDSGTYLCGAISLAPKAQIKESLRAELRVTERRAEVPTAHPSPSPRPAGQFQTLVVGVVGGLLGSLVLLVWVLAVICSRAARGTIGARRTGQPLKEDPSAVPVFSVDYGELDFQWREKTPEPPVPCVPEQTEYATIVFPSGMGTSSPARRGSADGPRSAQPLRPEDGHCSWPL
Description: Jurkat-PD-1 Cell Binding High-Content Screening Assay (CBA). It is filed as cell-based. The settings on record: Jurkat cell line over-expressing human PD-1; PE-labeled PD-L1-Ig 20 nM final; read-out: Jurkat hPD1-PDL1 IC50. The procedure, abridged: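 First, compound is added to PD-1-expressing Jurkat cells in serum-containing DMEM and left 2 h at 37° C. Next, PE-conjugated PD-L1-Ig is introduced at 20 nM final concentration for 1 hour. Finally, cells are fixed in 4% paraformaldehyde with Hoechst 33342, washed and imaged.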
What is called IC50 is the concentration needed to halve the response being measured. For the molecule `Cc1cccc(C[C@@H]2NC(=O)[C@H](CC(=O)O)NC(=O)[C@H](Cc3ccc(OCC(=O)O)cc3)NC(=O)[C@H](CN)NC(=O)CSC[C@@H](C(=O)N[C@@H](CC(=O)O)C(=O)NCCCCCCCCCCC(=O)O)NC(=O)[C@H]([C@@H](C)O)NC(=O)[C@H](C(C)C)NC(=O)[C@H](CC3CCCCC3)NC(=O)[C@H](CCN)NC(=O)[C@@H](CC(C)C)NC(=O)[C@H](CCCN)NC(=O)[C@H](CCCNC(N)=O)NC(=O)[C@H](Cc3ccc(-c4ccccc4)cc3)NC(=O)[C@H](C(C)C)NC2=O)c1` [Compound 1026] ({CH2CO}-[Dap]Y(Carboxymethyl)D[Phe(3-Me)]V[Bip][Cit][Orn][dL][Dab][Cha]VTCD[Aun]-OH; thioether N-14), the IC50 turned out to be 8.7 nM.

Take `CC(C)C[C@@H]1NC(=O)[C@H](Cc2c[nH]c3ccccc23)NC(=O)[C@H](CC(=O)O)NC(=O)[C@H](Cc2ccc(C(=O)O)cc2)NC(=O)[C@H](C(C)O)NC(=O)CSC[C@@H](C(=O)N[C@@H](C)C(=O)N[C@@H](CCN)C(=O)NCCCCCCCCCCCCCCC(=O)O)NC(=O)[C@H](CO)NC(=O)[C@H](C(C)C)NC(=O)[C@H](CC2CCCCC2)NC(=O)[C@H](Cc2c[nH]cn2)NC(=O)[C@@H](CC(C)C)NC(=O)[C@H](CCCN)NC(=O)[C@H](C(C)C)NC(=O)[C@H](Cc2ccc(-c3ccccc3)cc2)NC1=O` (stereo partly drawn) [Compound 3024] ({CH2CO}-[Thr(3ξ)][Phe(4-COOH)]DWL[Bip]V[Orn][dL]H[Cha]VSCA[Dab]-{NH(CH2)14COOH}; thioether N-14): the IC50 was determined as 891 nM.

For `C#CCOc1ccc(C[C@@H]2NC(=O)[C@H](C(C)C)NC(=O)[C@H](CC3CCCCC3)NC(=O)[C@H](CCN)NC(=O)[C@@H](CC(C)C)NC(=O)[C@H](CCCN)NC(=O)[C@H](Cc3ccc(OCC(=O)O)cc3)NC(=O)[C@H](Cc3ccc(-c4ccccc4)cc3)NC(=O)[C@H](Cc3ccc(OCC(=O)O)cc3)NC(=O)[C@H](Cc3cccc(C)c3)NC(=O)[C@H](CC(=O)O)NC(=O)[C@H](Cc3ccc(OCC(=O)O)cc3)NC(=O)[C@H](CN)NC(=O)CSC[C@@H](C(=O)N[C@@H](CCN)C(=O)NCCCCCCCCCCC(=O)O)NC2=O)cc1` [Compound 1248] ({CH2CO}-[Dap]Y(Carboxymethyl)D[Phe(3-Me)]Y(Carboxymethyl)[Bip]Y(Carboxymethyl)[Orn][dL][Dab][Cha]VY(Propargyl)C[Dab][Aun]-OH; thioether N-14), the concentration for half-maximal inhibition (IC50) was determined as 367 nM.

For `Cc1cccc(C[C@@H]2NC(=O)[C@H](CC(=O)O)NC(=O)[C@H](Cc3ccc(OCC(=O)O)cc3)NC(=O)[C@H](CCCCNC(=N)N)NC(=O)CSC[C@@H](C(=O)N[C@@H](CCCN)C(=O)N[C@@H](CO)C(=O)NCCCCCCCCCCCC(=O)O)NC(=O)[C@H](CO)NC(=O)[C@H](C(C)C)NC(=O)[C@H](CC3CCCCC3)NC(=O)[C@H](CCN)NC(=O)[C@@H](CC(C)C)NC(=O)[C@H](CCCNC(=N)N)NC(=O)[C@H](CCCNC(=N)C3CC3)NC(=O)[C@H](Cc3ccc(-c4ccccc4)cc3)NC(=O)[C@H](C(C)C)NC2=O)c1` [Compound 3578] ({CH2CO}-[hArg]Y(Carboxymethyl)D[Phe(3-Me)]V[Bip][X7]R[dL][Dab][Cha]VSC[Orn]S[12Ado]-OH; thioether N-14), the IC50 worked out at 21.5 nM.

As for `CC(C)C[C@H]1NC(=O)[C@H](CCCN)NC(=O)[C@H](Cc2ccc(O)cc2)NC(=O)[C@H](Cc2ccc(-c3ccccc3)cc2)NC(=O)[C@H](Cc2ccc(OCC(=O)O)cc2)NC(=O)[C@H](Cc2cccc(C(F)(F)F)c2)NC(=O)[C@H](CC(=O)O)NC(=O)[C@H](Cc2ccc(OCC(=O)O)cc2)NC(=O)[C@H](CN)NC(=O)CSC[C@@H](C(=O)N[C@@H](CCN)C(=O)NCCOCCOCC(=O)NCCCCCCCCCCC(=O)O)NC(=O)[C@H](CCCN)NC(=O)[C@H](C(C)C)NC(=O)[C@H](CC2CCCCC2)NC(=O)[C@H](CCN)NC1=O` [Compound 1287] ({CH2CO}-[Dap]Y(Carboxymethyl)D[Phe(3-CF3)]Y(Carboxymethyl)[Bip]Y[Orn][dL][Dab][Cha]V[Orn]C[Dab][AEEA][Aun]-OH; thioether N-14), the IC50 worked out at 8.2 nM.

Regarding `Cc1cccc(C[C@@H]2NC(=O)[C@H](CC(=O)O)NC(=O)[C@H](Cc3ccc(OCC(=O)O)cc3)NC(=O)[C@H](CCCNC(=O)c3cnccn3)NC(=O)CSC[C@@H](C(=O)N[C@@H](CCCN)C(=O)N[C@@H](CO)C(=O)NCCCCCCCCCCCC(=O)O)NC(=O)[C@H](C(C)O)NC(=O)[C@H](CCO)NC(=O)[C@H](CC3CCCCC3)NC(=O)[C@H](CCN)NC(=O)[C@@H](CC(C)C)NC(=O)[C@H](CCCN)NC(=O)[C@H](CCCNC(N)=O)NC(=O)[C@H](Cc3ccc(-c4ccccc4)cc3)NC(=O)[C@H](C(C)C)NC2=O)c1` (stereo partly drawn) [Compound 3583] ({CH2CO}-[Orn](Pyrazinecarbonyl)Y(Carboxymethyl)D[Phe(3-Me)]V[Bip][Cit][Orn][dL][Dab][Cha][hSer][Thr(3ξ)]C[Orn]S[12Ado]-OH; thioether N-14), the IC50 came out at 20.5 nM.

Consider `COC[C@@H]1NC(=O)CSC[C@@H](C(=O)N[C@@H](CCN)C(=O)NCCCCCCCCCCC(=O)O)NC(=O)[C@H](CO)NC(=O)[C@H](C(C)(C)O)NC(=O)[C@H](CC2CCCCC2)NC(=O)[C@H](CCN)NC(=O)[C@@H](CC(C)C)NC(=O)[C@H](CCCN)NC(=O)[C@H](Cc2ccc(OCC(=O)O)cc2)NC(=O)[C@H](Cc2ccc(-c3ccccc3)cc2)NC(=O)[C@H](Cc2ccc(OCC(=O)O)cc2)NC(=O)[C@H](Cc2cccc(C)c2)NC(=O)[C@H](CC(=O)O)NC(=O)[C@H](Cc2ccc(OCC(=O)O)cc2)NC1=O` [Compound 2207] ({CH2CO}-S(Me)Y(Carboxymethyl)D[Phe(3-Me)]Y(Carboxymethyl)[Bip]Y(Carboxymethyl)[Orn][dL][Dab][Cha][Val(3-OH)]SC[Dab][Aun]-OH; thioether N-14), for which the IC50 stood at 7.6 nM.

`C#CC[C@H](NC(=O)COCCOCCNC(=O)[C@H](CCCCN)NC(=O)[C@@H]1CSCC(=O)N[C@@H](Cc2ccncc2)C(=O)N[C@@H](Cc2ccc(OCC(=O)O)cc2)C(=O)N[C@@H](CC(=O)O)C(=O)N[C@@H](Cc2c[nH]c3ccccc23)C(=O)N[C@@H](C(C)C)C(=O)N[C@@H](Cc2ccc(-c3ccccc3)cc2)C(=O)N[C@@H]([C@@H](C)CC)C(=O)N[C@@H](CCCN)C(=O)N[C@H](CC(C)C)C(=O)N[C@@H](CCN)C(=O)N[C@@H](CC(C)C)C(=O)N[C@@H](C(C)C)C(=O)N[C@@H]([C@@H](C)O)C(=O)N1)C(=O)NCCCCCCCCCCC(=O)O` [Compound 1208] ({CH2CO}-[4Pal]Y(Carboxymethyl)DWV[Bip]I[Orn][dL][Dab]LVTCK[AEEA][Pra][Aun]-OH; thioether N-14): the IC50 was 26.9 nM.

In the case of `CC(C)C[C@H]1NC(=O)[C@H](CCCN)NC(=O)[C@H](CCC(=O)O)NC(=O)[C@H](Cc2ccc(-c3ccccc3)cc2)NC(=O)[C@H](C(C)C)NC(=O)[C@H](Cc2c[nH]c3ccccc23)NC(=O)[C@H](CC(=O)O)NC(=O)[C@H](Cc2ccncc2)NC(=O)[C@H](CCCCNC(=N)N)NC(=O)CSC[C@@H](C(=O)N[C@@H](C)C(=O)NCCOCCOCC(=O)N[C@@H](CCCCN)C(=O)NCCCCCCCCCCCCCCC(=O)O)NC(=O)[C@H](CO)NC(=O)[C@H](C(C)C)NC(=O)[C@H](CC2CCCCC2)NC(=O)[C@H](CCN)NC1=O` [Compound 3034] ({CH2CO}-[hArg][4Pal]DWV[Bip]E[Orn][dL][Dab][Cha]VSCA[AEEA]K-{NH(CH2)14COOH}; thioether N-14), the IC50 was 109 nM.

Consider `CC(C)C[C@H]1NC(=O)[C@H](CCCN)NC(=O)[C@H](Cc2ccc(C(=O)O)cc2)NC(=O)[C@H](Cc2ccc(-c3ccccc3)cc2)NC(=O)[C@H](Cc2ccc(C(=O)O)cc2)NC(=O)[C@H](Cc2cccc(C(F)(F)F)c2)NC(=O)[C@H](CC(=O)O)NC(=O)[C@H](Cc2ccc(OCC(=O)O)cc2)NC(=O)[C@H](CN2CCOCC2)NC(=O)CSC[C@@H](C(=O)N[C@@H](CCN)C(=O)NCCOCCOCCOCCOCCC(=O)NCCCCCCCCCCCCC(=O)O)NC(=O)[C@H](CC(=O)O)NC(=O)[C@H](C(C)(C)O)NC(=O)[C@H](CC2CCCCC2)NC(=O)[C@H](CCN)NC1=O` [Compound 2947] ({CH2CO}-[Ala(morpholin-4-yl)]Y(Carboxymethyl)D[Phe(3-CF3)][Phe(4-COOH)][Bip][Phe(4-COOH)][Orn][dL][Dab][Cha][Val(3-OH)]DC[Dab][PEG4]-{NH(CH2)12COOH}; thioether N-14), for which the IC50 worked out at 64.4 nM.

In the case of `Cc1cccc(C[C@@H]2NC(=O)[C@H](CC(=O)O)NC(=O)[C@H](Cc3ccc(OCC(=O)O)cc3)NC(=O)[C@H](CN)NC(=O)CSC[C@@H](C(=O)N[C@@H](C)C(=O)N[C@@H](CCCN)C(=O)NCCCCCCCCCCC(=O)O)NC(=O)[C@H]([C@@H](C)O)NC(=O)[C@H](C(C)C)NC(=O)[C@H](CC3CCCCC3)NC(=O)[C@H](CCN)NC(=O)[C@@H](CC(C)C)NC(=O)[C@H](CCCN)NC(=O)[C@H](CCCNC(N)=O)NC(=O)[C@H](Cc3ccc(-c4ccccc4)cc3)NC(=O)[C@H](C(C)C)NC2=O)c1` [Compound 1072] ({CH2CO}-[Dap]Y(Carboxymethyl)D[Phe(3-Me)]V[Bip][Cit][Orn][dL][Dab][Cha]VTCA[Orn][Aun]-OH; thioether N-14), the IC50 amounted to 14.2 nM.

Take `CC(C)C[C@H]1NC(=O)[C@H](CCCN)NC(=O)[C@H](Cc2ccc(C(=O)O)cc2)NC(=O)[C@H](Cc2ccc(-c3ccccc3)cc2)NC(=O)[C@H](Cc2ccc(C(=O)O)cc2)NC(=O)[C@H](Cc2cccc(C(F)(F)F)c2)NC(=O)[C@H](CC(=O)O)NC(=O)[C@H](Cc2ccc(OCC(=O)O)cc2)NC(=O)[C@H](Cc2ccc(OCC(=O)O)cc2)NC(=O)CSC[C@@H](C(=O)N[C@@H](CCN)C(=O)NCCCCCCCCCCCCCCC(=O)O)NC(=O)[C@H](CCC(=O)O)NC(=O)[C@H](C(C)C)NC(=O)[C@H](CC2CCCCC2)NC(=O)[C@H](CCN)NC1=O` [Compound 3849] ({CH2CO}-Y(Carboxymethyl)Y(Carboxymethyl)D[Phe(3-CF3)][Phe(4-COOH)][Bip][Phe(4-COOH)][Orn][dL][Dab][Cha]VEC[Dab]-{NH(CH2)14COOH}; thioether N-14): the IC50 was 250 nM.
